Earlier results in US20190231770A1, “COMBINATION COMPOSITIONS COMPRISING FXR AGONISTS FOR TREATING OR PREVENTING A FIBROTIC, CIRRHOTIC DISEASE OR DISORDER” (Novartis AG, priority 2016, published 2019).

Columns and labels:
[1] = long term administration
[2] = patients with chronic liver diseases
[3] = pre-clinical models of NASH and cold ischemia and reperfusion injury; clinical trials in NASH/NAFLD, portal hypertension and cirrhosis
[4] = system: caspases 1, 2, 3, 6, 7, 8 and 9

LDL cholesterol [1] | pruritus [1] | SMILES | serum aspartate aminotransferase (AST) and alanine aminotransferase (ALT) levels [2] | efficacy [3] | inhibition of caspases 1, 2, 3, 6, 7, 8 and 9 [4]
increased LDL cholesterol | associated with pruritus | CC[C@H]1[C@@H](O)[C@@H]2[C@H](CC[C@]3(C)[C@@H]([C@H](C)CCC(=O)O)CC[C@@H]23)[C@@]2(C)CC[C@@H](O)C[C@@H]12 [obeticholic acid, Obeticholic acid] | – | – | –
– | – | C[C@H](NC(=O)C(=O)Nc1ccccc1C(C)(C)C)C(=O)N[C@@H](CC(=O)O)C(=O)COc1c(F)c(F)cc(F)c1F [emricasan, 3-[2-[(2-tert-butyl-phenylaminooxalyl)-amino]-propionylamino]-4-oxo-5-(2,3,5,6-tetrafluoro-phenoxy)-pentanoic acid] | lower | demonstrated efficacy | inhibits
